US6960574B2, “Antagonists of RF-amide neuropeptides” (University of Florida, priority 2002, dated 2005)
Peptide text beside a SMILES is read from it. * marks the point of attachment. Dansyl = CN(C)c1cccc2c(S(=O)(=O)*)cccc12

Test system: receptor labeled by the radioiodinated analogue of 1 (4, [125I]-YLFQPQRF-NH2); neuropeptide FF receptor
Test: Competitive radioligand binding against 4 ([125I]Y8F-amide)
Settings: mixture-based positional scanning; difference from averaged radioligand displacement of whole library (0); about 80 a.u. = 10-fold change in Ki

Relative Binding Index (RBI) [a.u.] | SMILES
−22 | CC(C)[C@H](NS(=O)(=O)c1cccc2c(N(C)C)cccc12)C(=O)N[C@@H](CC(=O)O)C(=O)N[C@@H](CCCNC(=N)N)C(N)=O [Dansyl-VDR-amide] (Dansyl-Val-Asp-Arg-NH2)
−4 | CC(C)[C@H](NS(=O)(=O)c1cccc2c(N(C)C)cccc12)C(=O)N[C@@H](CCC(=O)O)C(=O)N[C@@H](CCCNC(=N)N)C(N)=O [Dansyl-VER-amide] (Dansyl-Val-Glu-Arg-NH2)
−6 | CC(C)[C@H](NS(=O)(=O)c1cccc2c(N(C)C)cccc12)C(=O)N[C@@H](Cc1ccccc1)C(=O)N[C@@H](CCCNC(=N)N)C(N)=O [Dansyl-VFR-amide] (Dansyl-Val-Phe-Arg-NH2)
1 | CC(C)[C@H](NS(=O)(=O)c1cccc2c(N(C)C)cccc12)C(=O)NCC(=O)N[C@@H](CCCNC(=N)N)C(N)=O [Dansyl-VGR-amide] (Dansyl-Val-Gly-Arg-NH2)
−10 | CC(C)[C@H](NS(=O)(=O)c1cccc2c(N(C)C)cccc12)C(=O)N[C@@H](Cc1cnc[nH]1)C(=O)N[C@@H](CCCNC(=N)N)C(N)=O [Dansyl-VHR-amide] (Dansyl-Val-His-Arg-NH2)
2 | CC[C@H](C)[C@H](NC(=O)[C@@H](NS(=O)(=O)c1cccc2c(N(C)C)cccc12)C(C)C)C(=O)N[C@@H](CCCNC(=N)N)C(N)=O [Dansyl-VIR-amide] (Dansyl-Val-Ile-Arg-NH2)
−7 | CC(C)[C@H](NS(=O)(=O)c1cccc2c(N(C)C)cccc12)C(=O)N[C@@H](CCCCN)C(=O)N[C@@H](CCCNC(=N)N)C(N)=O [Dansyl-VKR-amide] (Dansyl-Val-Lys-Arg-NH2)
−13 | CC(C)C[C@H](NC(=O)[C@@H](NS(=O)(=O)c1cccc2c(N(C)C)cccc12)C(C)C)C(=O)N[C@@H](CCCNC(=N)N)C(N)=O [Dansyl-VLR-amide] (Dansyl-Val-Leu-Arg-NH2)
−4 | CSCC[C@H](NC(=O)[C@@H](NS(=O)(=O)c1cccc2c(N(C)C)cccc12)C(C)C)C(=O)N[C@@H](CCCNC(=N)N)C(N)=O [Dansyl-VMR-amide] (Dansyl-Val-Met-Arg-NH2)
−3 | CC(C)[C@H](NS(=O)(=O)c1cccc2c(N(C)C)cccc12)C(=O)N[C@@H](CC(N)=O)C(=O)N[C@@H](CCCNC(=N)N)C(N)=O [Dansyl-VNR-amide] (Dansyl-Val-Asn-Arg-NH2)
−1 | CC(C)[C@H](NS(=O)(=O)c1cccc2c(N(C)C)cccc12)C(=O)N1CCC[C@H]1C(=O)N[C@@H](CCCNC(=N)N)C(N)=O [Dansyl-VPR-amide] (Dansyl-Val-Pro-Arg-NH2)
9 | CC(C)[C@H](NS(=O)(=O)c1cccc2c(N(C)C)cccc12)C(=O)N[C@@H](CCC(N)=O)C(=O)N[C@@H](CCCNC(=N)N)C(N)=O [Dansyl-VQR-amide] (Dansyl-Val-Gln-Arg-NH2)
−6 | CC(C)[C@H](NS(=O)(=O)c1cccc2c(N(C)C)cccc12)C(=O)N[C@@H](CCCNC(=N)N)C(=O)N[C@@H](CCCNC(=N)N)C(N)=O [Dansyl-VRR-amide] (Dansyl-Val-Arg-Arg-NH2)
16 | CC(C)[C@H](NS(=O)(=O)c1cccc2c(N(C)C)cccc12)C(=O)N[C@@H](CO)C(=O)N[C@@H](CCCNC(=N)N)C(N)=O [Dansyl-VSR-amide]
1 | CC(C)[C@H](NS(=O)(=O)c1cccc2c(N(C)C)cccc12)C(=O)N[C@H](C(=O)N[C@@H](CCCNC(=N)N)C(N)=O)[C@@H](C)O [Dansyl-VTR-amide] (Dansyl-Val-Thr-Arg-NH2)
−9 | CC(C)[C@H](NC(=O)[C@@H](NS(=O)(=O)c1cccc2c(N(C)C)cccc12)C(C)C)C(=O)N[C@@H](CCCNC(=N)N)C(N)=O [Dansyl-VVR-amide] (Dansyl-Val-Val-Arg-NH2)
4 | CC(C)[C@H](NS(=O)(=O)c1cccc2c(N(C)C)cccc12)C(=O)N[C@@H](Cc1c[nH]c2ccccc12)C(=O)N[C@@H](CCCNC(=N)N)C(N)=O [Dansyl-VWR-amide] (Dansyl-Val-Trp-Arg-NH2)
−6 | CC(C)[C@H](NS(=O)(=O)c1cccc2c(N(C)C)cccc12)C(=O)N[C@@H](Cc1ccc(O)cc1)C(=O)N[C@@H](CCCNC(=N)N)C(N)=O [Dansyl-VYR-amide] (Dansyl-Val-Tyr-Arg-NH2)
−40 | C[C@H](NC(=O)[C@H](Cc1c[nH]c2ccccc12)NS(=O)(=O)c1cccc2c(N(C)C)cccc12)C(=O)N[C@@H](CCCNC(=N)N)C(N)=O [Dansyl-WAR-amide] (Dansyl-Trp-Ala-Arg-NH2)
−9 | CN(C)c1cccc2c(S(=O)(=O)N[C@@H](Cc3c[nH]c4ccccc34)C(=O)N[C@@H](CC(=O)O)C(=O)N[C@@H](CCCNC(=N)N)C(N)=O)cccc12 [Dansyl-WDR-amide] (Dansyl-Trp-Asp-Arg-NH2)
9 | CN(C)c1cccc2c(S(=O)(=O)N[C@@H](Cc3c[nH]c4ccccc34)C(=O)N[C@@H](CCC(=O)O)C(=O)N[C@@H](CCCNC(=N)N)C(N)=O)cccc12 [Dansyl-WER-amide] (Dansyl-Trp-Glu-Arg-NH2)
7 | CN(C)c1cccc2c(S(=O)(=O)N[C@@H](Cc3c[nH]c4ccccc34)C(=O)N[C@@H](Cc3ccccc3)C(=O)N[C@@H](CCCNC(=N)N)C(N)=O)cccc12 [Dansyl-WFR-amide]
14 | CN(C)c1cccc2c(S(=O)(=O)N[C@@H](Cc3c[nH]c4ccccc34)C(=O)NCC(=O)N[C@@H](CCCNC(=N)N)C(N)=O)cccc12 [Dansyl-WGR-amide] (Dansyl-Trp-Gly-Arg-NH2)
3 | CN(C)c1cccc2c(S(=O)(=O)N[C@@H](Cc3c[nH]c4ccccc34)C(=O)N[C@@H](Cc3c[nH]cn3)C(=O)N[C@@H](CCCNC(=N)N)C(N)=O)cccc12 [Dansyl-WHR-amide] (Dansyl-Trp-His-Arg-NH2)
15 | CCC(C)C(NC(=O)C(Cc1c[nH]c2ccccc12)NS(=O)(=O)c1cccc2c(N(C)C)cccc12)C(=O)NC(CCCNC(=N)N)C(N)=O (stereo not drawn) [Dansyl-WIR-amide] (Dansyl-Trp-Ile-Arg-NH2; configuration not given here)
6 | CN(C)c1cccc2c(S(=O)(=O)N[C@@H](Cc3c[nH]c4ccccc34)C(=O)N[C@@H](CCCCN)C(=O)N[C@@H](CCCNC(=N)N)C(N)=O)cccc12 [Dansyl-WKR-amide] (Dansyl-Trp-Lys-Arg-NH2)
0 | CC(C)C[C@H](NC(=O)[C@H](Cc1c[nH]c2ccccc12)NS(=O)(=O)c1cccc2c(N(C)C)cccc12)C(=O)N[C@@H](CCCNC(=N)N)C(N)=O [Dansyl-WLR-amide]
9 | CSCC[C@H](NC(=O)[C@H](Cc1c[nH]c2ccccc12)NS(=O)(=O)c1cccc2c(N(C)C)cccc12)C(=O)N[C@@H](CCCNC(=N)N)C(N)=O [Dansyl-WMR-amide] (Dansyl-Trp-Met-Arg-NH2)
10 | CN(C)c1cccc2c(S(=O)(=O)N[C@@H](Cc3c[nH]c4ccccc34)C(=O)N[C@@H](CC(N)=O)C(=O)N[C@@H](CCCNC(=N)N)C(N)=O)cccc12 [Dansyl-WNR-amide] (Dansyl-Trp-Asn-Arg-NH2)
